From a melting point compilation (Tetko et al.; mined from patent text by program, amines drawn as free bases though some values may be those of a salt)

SMILES | melting point [°C]
FC(F)(F)c1nc(Cl)c(-c2ccccc2)c(-c2ccccc2)n1 | 105 to 107
CCc1ccc2c(c1NC(=O)CC1c3ccccc3Oc3ccccc31)OC(C)C2 (stereo not drawn) | 278 to 279
CC(C)(C)C(=O)OCOC(=O)[C@H]1[C@@H]2CC[C@@](N)(C(=O)O)[C@@H]21 | 205 to 206
CCOC(=O)CCCCCCC1C(=O)NC(=O)N1CCC(=O)C1CCCCC1 (stereo not drawn) | 77.5 to 78.5
CCc1c2s[nH]c(=O)c2c(=O)n2ccc(N3CCC(N(C)C)C3)cc12 (stereo not drawn) | 217 to 219
CCCCCCCCCCCCCCCCCCNC(=O)OCC(CNS(=O)(=O)CCCCl)NC(=O)OC(C)(C)C (stereo not drawn) | 112 to 115
Clc1cc(I)cnc1Cl | 55 to 57
ON=Cc1cn2c(n1)COc1ccccc1-2 | 232 to 233
O=C(O)CN1C(=O)c2cccc3c(Sc4ccccc4C(=O)O)ccc(c23)C1=O | 339 to 341
COc1cc(OC)c(OC)cc1CN[C@@H](C(=O)O)[C@H](O)[C@H](Cc1ccccc1)NC(=O)OC(C)(C)C | 206
COc1cccc(C2=CCN(C(=O)CSCc3c[nH]c4ccccc34)CC2)c1 | 115 to 117
COCCN(CCOC)c1ccccc1NC(N)=S | 118 to 119
Cc1c(O)cccc1C(=O)N[C@@H](Cc1ccccc1)[C@H](O)C(=O)N1CSC(C)(C)[C@H]1C(=O)N[C@H]1C=CCCC1 | 193 to 195
CCOC(=O)c1ccc(C(=O)NNC(=O)c2ccc(C(=O)OCC)cc2)cc1 | 191 to 195
CC(C)(C)OC(=O)N1CC=C(c2ccc(NCc3ccccc3)cc2)CC1 | 120 to 121
Cc1cc2c(cc1C=O)C(C)(C)CCC2(C)C | 82.4 to 84.1
COc1ccccc1N1CCN(CCCNC(=O)c2cccc3c(=O)c(C)c(-c4cccnc4)oc23)CC1 | 134 to 137
Cc1c(SCCCN2CCN(Cc3ccncc3)CC2)ccnc1CNc1cnc2ccccc2c1 | 145 to 150
NC(CC(=O)O)c1ccc(Br)cc1 (stereo not drawn) | 234
COC(=O)CCC1=C(N)CCC1=O | 223 to 224

SMILES | melting point [°C]
CN1C(=O)CC[C@]2(C)c3ccc(-c4ccc(C(F)(F)F)cc4)cc3CC[C@@H]12 | 86 to 89
C#CC[C@H](c1nc2cc(Cl)ccc2c(=O)n1Nc1ccccc1)N(CCCN1C(=O)c2ccccc2C1=O)C(=O)c1cccc(Cl)c1F | 130 to 132
CCc1ccc(SCCC(=O)O)cc1 | 59 to 60
Brc1cccc(Nc2ncnc3cc4c(cc23)OC(CN2CCOCC2)CO4)c1 (stereo not drawn) | 229 to 230
COC(=O)C(CCCCNC(=O)OCc1ccccc1)NC(=O)CCC(C)C1CCC2C3C(O)CC4CC(O)CCC4(C)C3CC(O)C12C (stereo not drawn) | 80 to 83
Sc1nccn1Cc1cccs1 | 130 to 131
Nc1sc2c(c1C(=O)c1ccc3ccccc3c1)CCN(Cc1ccccc1)C2 | 174 to 177
O=S1(=O)c2ccccc2C=Cc2ccc(C=Nc3ccccc3)cc21 | 184 to 185
O=C(O)C(CCCCCCCCCCCC(C(=O)O)C1CC1)C1CC1 (stereo not drawn) | 115 to 118
CO/C=C(/C(=O)OC)c1ccccc1Br | 68 to 69
C=CCc1cc(CCC(=O)OCC)ccc1C#CC1(O)CN2CCC1CC2 (stereo not drawn) | 55 to 56
COC(=O)c1ccc(Cl)c(NN)c1 | 218 to 220
CCN(CC)CCCC1CCCN(C(=O)N2c3ccccc3NC(=O)c3cccnc32)C1 (stereo not drawn) | 123 to 125
CCC(NS(=O)(=O)c1ccc(N2CCOCC2)cc1)C(=O)O (stereo not drawn) | 163 to 165
Cn1ncnc1COc1nn2c(-c3ccccc3F)nnc2cc1C1(F)CCC1 | 154 to 162
CC1CN(c2c(F)cc3c(=O)c(C(=O)O)cn(C4CC4)c3c2F)CC1NC(=O)OC(C)(C)C (stereo not drawn) | 230 to 231
CCCCn1c(=O)n(CCC)c(=O)c2c3n(nc21)CCCN3C | 94 to 98
COc1ccccc1/C=C/C(=O)/C=C/c1ccccc1OC | 124 to 126
CC(=O)N(C)N(C(=O)OC(C)(C)C)c1ccc(CC#N)cc1 | 74 to 75
CCN1CCN(c2cc(-c3ccccc3)c3ccccc3n2)CC1 | 87 to 88

Now from value to molecule:

melting point [°C] | SMILES
124 to 126 | O=C(CNc1ccccc1)Nc1cc(F)c(F)cc1C(=O)O
139 to 140 | CC(=O)Nc1nc(CCc2ccc(NC3=NCCN3)cc2)c(Cc2ccc(S(C)(=O)=O)cc2)s1
174 | O=[N+]([O-])c1ccc(OCc2ccc(Cl)nc2)cc1F
141 to 142 | NC(=O)N(O)Cc1cc(Oc2ccc(Cl)cc2)cs1
208 to 209 | CCC(C)Nc1cc(-c2ccc(Cl)cc2)nc2nn(C)cc12 (stereo not drawn)
187 to 191 | COCCc1nc2c(N)nc3cc(-c4ccccc4)ccc3c2n1CCCN1CCCC1=O
105 to 107 | Cc1ncn(-c2ccc([N+](=O)[O-])cc2F)n1
91.5 to 92.5 | CN(C)CCn1c(-c2ccc(Cl)cc2)cc2c1CCSC2
190 to 196 | COc1ccc(N2Cc3nc(C(=O)O)nn3-c3cccnc32)cc1
152 to 154 | COc1cc(OC)c(C23CC4CC(CC(C4)C2)C3)cc1C#Cc1ccc(C(=O)O)cc1
224 to 225 | COc1cc(OC)c2cc(S(=O)(=O)Cc3ccc(OC)c([N+](=O)[O-])c3)c(=O)oc2c1
42 to 46 | CCOC(=O)C(C(=O)OCC)C(=O)C(C)Oc1ccc(Oc2ccc(C#N)cc2)cc1 (stereo not drawn)
188 | Cc1ccc(-c2cncc(OC3SCC(O)C(O)C3O)c2)o1 (stereo not drawn)
210 to 212 | CNC(=O)c1ccccc1Nc1nc(Nc2cc3c(cc2OC)N(C)C(=O)OCC3)ncc1C(F)(F)F
180 to 182 | O=C1CNC(c2cc(-c3ccsc3)cc(-c3ccsc3)c2)=NN1CC(F)(F)F
334 to 338 | CC(=O)Nn1c(=S)[nH]c2cc(C(=O)O)ccc21
103 to 105 | COc1cccc(Oc2ccc(NC(C)=O)cc2)c1

melting point [°C] | SMILES
155 to 157 | COc1ccc(Cn2cnc3c(-c4ccco4)nc(C#C[Si](C)(C)C)nc32)cc1
335 | CC(C)(C)NC(=O)Nc1nc2nc(N)ncc2cc1-c1c(Cl)cccc1Cl
181 to 182 | CC(C)(C)S(=O)(=O)c1ccc(C(=O)O)c(Cl)c1
182 to 185 | CCOC(=O)c1nc(-c2ccncc2)[nH]c1-c1ccc(C)cc1
89 to 91 | CCOC(=O)/C=C/c1cccc(-c2ccc(OCC)c(OC)c2)c1
99 to 101 | CCCCOC(=O)CNC(=O)c1nc2ccc(OCCCC)cc2cc1OCc1ccccc1
135 to 140 | CCOC(=O)c1cn(Cc2ccccc2)c2cc(C(C)C)nn2c1=O
289 to 291 | Nc1cccc2c(=O)[nH]ncc12
151 to 152 | CCOC(=O)c1cnc2c(S)cccn2c1=O
> 300 | Cc1ccnc2c1C(=O)c1nccc(Cl)c1C2=O
311 to 313 | COc1cc(OC)c(OC)cc1C=C1CCc2c1oc1ccc(C(=O)O)cc1c2=O
189 to 191 | CS(=O)(=O)c1ccnc(Oc2cc(C#N)cc(C#N)c2)n1
91 | C[C@@H](NC(=O)C1(C)CC1)c1ccc2ccccc2c1
185 to 187 | CCc1cc(Oc2cncc3sc(C(N)=O)cc23)ccc1Cl
257 to 258 | Cc1nc2c(N)cc(Br)cc2n1O
91.2 to 92.6 | C=C(c1ccc(Br)cc1)c1ccc(OC)cc1
